# pIC50: −log10 of the molar value.
# Columns and labels:
# [1] = target: human TRPA1 channel (Homo sapiens (Human), UniProt O75762); experiment: TRPA1 inhibitor activity, automated patch clamp (SyncroPatch); assay type: cell-based; details: CHO cells inducibly expressing human TRPA1, currents elicited by carvacrol (300 μM), holding potential −60 mV
# Description: This assay was used to evaluate the disclosed compounds' inhibition activities against the human TRPA1 channel.
# CHO cells inducibly expressing human TRPA1 were grown in DMEM containing 10% heat-inactivated FBS, 1 mM Sodium Pyruvate, 2 mM L-Glutamine, Zeocin (100 μg/ml) and Blasticidin (10 μg/ml). Expression was induced by addition of Doxycycline (1 μg/ml) 24 hours before experiments. Cells used for electrophysiology were plated in plastic culture flasks and grown at 37° C. in a 5% CO2-humidified tissue culture incubator per ChanPharm SOP. Stocks were maintained in cryogenic storage.
# The cells were bathed in an extracellular solution containing 80 mM NaCl, 60 mM NMDG, 4 mM KCl, 2 mM CaCl2), 6 mM MgCl2, 5 mM Glucose. 10 mM HEPES, 3 mM HEDTA; pH adjusted to 7.4 with NaOH; 305-310 mOsm. All compounds were dissolved in DMSO at 30 mM. The internal solution contained 10 mM CsCl, 110 mM CsF, 10 mM NaCl, 10 mM EGTA, 10 mM HEPES, 4 mM MgATP, 0.25 mM NaGTP, 4 mM BAPTA; pH adjusted to 7.2 with CsOH; 285-290 mOsm. Compound stock solutions were freshly diluted with external solution to concentrations of 3 nM, 10 nM 30 nM, 100 nM, 300 nM, 1 μM, 3 μM, 10 μM, and 30 μM. The highest content of DMSO (0.1%) was present at 30 μM.
# All experiments were performed at room temperature. Each cell acted as its own control. In preparation for a current recording session, intracellular solution (see above) was loaded into the intracellular compartments of the automated patch clamp platform SyncroPatch (Nanion) chip and the cell suspension was pipetted into the extracellular compartments. After establishment of a whole-cell configuration, membrane current recordings and compound application were enabled by means of the SyncroPatch. TRPA1 currents were elicited by application of carvacrol (300 μM) at a constant holding potential of −60 mV (see Table A below).
# To determine IC50 values, AUC and peak values, obtained in the presence of a given compound concentration, were normalized to control values in absence of compound. Using DataControl384 (Nanion's proprietary software), IC50 values were derived by fitting the normalized data to the Hill equation.
# [2] = target: hERG channel (Homo sapiens (Human), UniProt Q12809); experiment: hERG activity, automated patch clamp (SyncroPatch); assay type: cell-based; details: CHO-K1 cells stably expressing hERG, tail current at −50 mV, compounds at 50 μM and 100 μM
# Description: This assay was used to evaluate the disclosed compounds' inhibition activities against the hERG channel.
# CHO-K1 cells stably expressing hERG were grown in Ham's F-12 Medium with Glutamine containing 10% heat-inactivated FBS, 1% Penicillin/Streptomycin, Hygromycin (100 μg/ml), and G418 (100 μg/ml). Cells used for electrophysiology were plated in plastic culture flasks and grown at 37° C. in a 5% CO2-humidified incubator per ChanPharm SOP. Stocks were maintained in cryogenic storage.
# The cells were bathed in an extracellular solution containing 140 mM NaCl, 4 mM KCl, 2 mM CaCl2), 1 mM MgCl2, 5 mM Glucose, and 10 mM HEPES; pH adjusted to 7.4 with NaOH; 295-305 mOsm. The internal solution contained 10 mM KCl, 110 mM KF, 10 mM NaCl, 10 mM EGTA, 10 mM HEPES; pH adjusted to 7.2 with KOH; 280-285 mOsm. All compounds were dissolved in DMSO at 30 mM. Compound stock solutions were freshly diluted with external solution to concentrations of 50 μM and 100 μM. The highest content of DMSO […].
# All experiments were performed at room temperature. Each cell acted as its own control. In preparation for a recording session, intracellular solution (see above) was loaded into the intracellular compartments of the automated patch clamp platform SyncroPatch (Nanion) chip and the cell suspension was pipetted into the extracellular compartments. After establishment of a whole-cell configuration, membrane current recordings, and compound application were enabled by means of the SyncroPatch. hERG currents were elicited by a voltage pulse pattern with fixed amplitudes (depolarization: +20 mV amplitude, 300 ms duration; repolarization: −50 mV, 300 ms duration) repeated at 3 s intervals from a holding potential of −80 mV.
# Data acquisition and analysis were performed using DataControl384 (Nanion's proprietary software). To determine the (percentage) inhibition, the last single pulse in the pulse train (i.e., the repolarization step to −50 mV; tail current) at a given compound concentration was used. AUC and peak values, obtained in the presence of compound, were normalized to control values in the absence of compound.
# Chain of human TRPA1 channel (O75762 whole entry): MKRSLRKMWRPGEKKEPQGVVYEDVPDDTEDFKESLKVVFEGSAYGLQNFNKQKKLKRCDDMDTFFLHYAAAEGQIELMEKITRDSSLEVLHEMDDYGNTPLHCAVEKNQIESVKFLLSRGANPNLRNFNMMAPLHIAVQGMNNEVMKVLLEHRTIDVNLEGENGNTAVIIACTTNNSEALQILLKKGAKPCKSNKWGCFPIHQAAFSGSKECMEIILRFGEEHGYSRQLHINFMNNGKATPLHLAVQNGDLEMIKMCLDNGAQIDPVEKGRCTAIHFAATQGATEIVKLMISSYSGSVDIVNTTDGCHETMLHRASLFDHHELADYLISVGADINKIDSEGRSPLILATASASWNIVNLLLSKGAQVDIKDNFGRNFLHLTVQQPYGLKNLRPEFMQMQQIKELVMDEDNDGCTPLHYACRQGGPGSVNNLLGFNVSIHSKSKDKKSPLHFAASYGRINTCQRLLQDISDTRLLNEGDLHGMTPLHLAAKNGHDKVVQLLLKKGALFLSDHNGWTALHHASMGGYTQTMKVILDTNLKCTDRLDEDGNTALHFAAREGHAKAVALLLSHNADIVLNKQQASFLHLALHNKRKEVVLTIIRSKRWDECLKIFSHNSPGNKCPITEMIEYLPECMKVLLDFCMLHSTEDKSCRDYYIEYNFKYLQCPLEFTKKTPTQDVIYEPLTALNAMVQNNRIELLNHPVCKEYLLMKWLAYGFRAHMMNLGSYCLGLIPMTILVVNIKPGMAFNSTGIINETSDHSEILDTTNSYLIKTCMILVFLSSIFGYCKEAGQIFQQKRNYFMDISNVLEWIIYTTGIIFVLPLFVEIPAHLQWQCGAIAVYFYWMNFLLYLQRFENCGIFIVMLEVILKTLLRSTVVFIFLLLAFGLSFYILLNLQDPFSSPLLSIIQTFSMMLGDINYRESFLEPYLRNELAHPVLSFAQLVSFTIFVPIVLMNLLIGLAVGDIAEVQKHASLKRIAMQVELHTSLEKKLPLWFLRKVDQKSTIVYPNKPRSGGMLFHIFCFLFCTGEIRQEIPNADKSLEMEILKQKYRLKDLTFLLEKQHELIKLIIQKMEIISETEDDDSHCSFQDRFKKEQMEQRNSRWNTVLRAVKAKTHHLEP
# Chain of hERG channel (Q12809 whole entry): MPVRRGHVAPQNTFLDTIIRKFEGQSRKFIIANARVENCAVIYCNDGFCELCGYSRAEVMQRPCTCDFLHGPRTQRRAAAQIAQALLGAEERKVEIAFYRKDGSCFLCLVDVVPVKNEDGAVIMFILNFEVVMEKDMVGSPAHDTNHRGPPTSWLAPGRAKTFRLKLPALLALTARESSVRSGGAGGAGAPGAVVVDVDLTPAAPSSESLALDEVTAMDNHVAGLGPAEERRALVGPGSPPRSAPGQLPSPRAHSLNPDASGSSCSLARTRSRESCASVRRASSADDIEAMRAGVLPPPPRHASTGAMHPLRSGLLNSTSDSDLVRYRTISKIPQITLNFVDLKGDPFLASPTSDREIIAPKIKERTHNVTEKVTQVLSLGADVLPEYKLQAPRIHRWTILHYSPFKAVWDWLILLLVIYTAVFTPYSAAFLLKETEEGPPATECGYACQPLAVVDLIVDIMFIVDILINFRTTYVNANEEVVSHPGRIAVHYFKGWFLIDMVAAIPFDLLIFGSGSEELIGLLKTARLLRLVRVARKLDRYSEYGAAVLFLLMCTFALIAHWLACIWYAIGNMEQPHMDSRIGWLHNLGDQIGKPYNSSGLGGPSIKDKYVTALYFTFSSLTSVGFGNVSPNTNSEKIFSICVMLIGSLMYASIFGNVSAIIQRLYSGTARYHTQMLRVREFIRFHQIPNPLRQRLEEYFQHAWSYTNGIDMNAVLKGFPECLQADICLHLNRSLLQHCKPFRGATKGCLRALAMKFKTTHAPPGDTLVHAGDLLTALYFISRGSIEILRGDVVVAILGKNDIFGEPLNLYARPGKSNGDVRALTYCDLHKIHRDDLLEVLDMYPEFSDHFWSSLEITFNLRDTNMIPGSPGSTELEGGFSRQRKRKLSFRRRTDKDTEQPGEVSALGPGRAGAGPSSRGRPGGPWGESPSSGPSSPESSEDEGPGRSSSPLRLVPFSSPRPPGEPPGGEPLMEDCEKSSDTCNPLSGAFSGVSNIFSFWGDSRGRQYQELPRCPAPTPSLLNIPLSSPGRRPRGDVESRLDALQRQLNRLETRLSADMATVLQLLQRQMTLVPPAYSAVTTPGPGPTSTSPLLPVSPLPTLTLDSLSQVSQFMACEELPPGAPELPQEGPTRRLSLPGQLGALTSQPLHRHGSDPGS
Structure (SMILES),pIC50 ([1]; Table 4),pIC50 ([1]; Table 5),pIC50 ([2]; Table 4),pIC50 ([2]; Table 5)
"Cc1c(CN)ncn(Cc2nc(CCc3ccc(Cl)cc3)no2)c1=O [Compound 30, 6-(aminomethyl)-3-((3-(4-chlorophenethyl)-1,2,4-oxadiazol-5-yl)methyl)-5-methylpyrimidin-4(3H)-one]",> 6.52,,> 4.30,
"Nc1ccn(Cc2nc(C[C@H](O)c3ccc(Cl)cc3)no2)c(=O)c1Cl [Compound 14, (S)-4-amino-3-chloro-1-((3-(2-(4-chlorophenyl)-2-hydroxyethyl)-1,2,4-oxadiazol-5-yl)methyl)pyridin-2(1H)-one]",> 5.52,,< 4.30,
"O=c1c(Cl)nccn1Cc1nc(C[C@H](O)c2ccc(Cl)cc2)no1 [Compound 22, (S)-3-chloro-1-((3-(2-(4-chlorophenyl)-2-hydroxyethyl)-1,2,4-oxadiazol-5-yl)methyl)pyrazin-2(1H)-one]",> 6.52,,> 4.30,
"Cc1nc(C(N)=O)cn(Cc2nc(C[C@H](O)c3ccc(Cl)cc3)no2)c1=O [Compound 29, 4-({3-[(2S)-2-(4-chlorophenyl)-2-hydroxyethyl]-1,2,4-oxadiazol-5-yl}methyl)-6-methyl-5-oxopyrazine-2-carboxamide]",> 6.52,,< 4.30,
"NC(=O)c1cc(Cl)c(=O)n(Cc2nc(CCc3ccc(Cl)cc3)no2)c1 [Compound 6, 5-chloro-1-((3-(4-chlorophenethyl)-1,2,4-oxadiazol-5-yl)methyl)-6-oxo-1,6-dihydropyridine-3-carboxamide]",> 6.52,,> 4.30,
"NC(=O)c1cn(Cc2nc(C[C@H](O)c3ccc(Cl)cc3)no2)c(=O)c(Cl)n1 [Compound 26, (S)-6-chloro-4-((3-(2-(4-chlorophenyl)-2-hydroxyethyl)-1,2,4-oxadiazol-5-yl)methyl)-5-oxo-4,5-dihydropyrazine-2-carboxamide]",> 6.00,,< 4.30,
"Cn1cc(-c2ccn(Cc3nc(C[C@H](O)c4ccc(Cl)cc4)no3)c(=O)c2Cl)cn1 [Compound 18, (S)-3-chloro-1-((3-(2-(4-chlorophenyl)-2-hydroxyethyl)-1,2,4-oxadiazol-5-yl)methyl)-4-(1-methyl-1H-pyrazol-4-yl)pyridin-2(1H)-one]",> 6.00,,> 4.30,
"Cc1nc(Br)cn(Cc2nc(C[C@H](O)c3ccc(Cl)cc3)no2)c1=O [Compound 27, (S)-5-bromo-1-((3-(2-(4-chlorophenyl)-2-hydroxyethyl)-1,2,4-oxadiazol-5-yl)methyl)-3-methylpyrazin-2(1H)-one]",> 6.52,,> 4.30,
"O=c1c(Cl)c(CO)ccn1Cc1nc(C[C@H](O)c2ccc(Cl)cc2)no1 [Compound 17, (S)-3-chloro-1-((3-(2-(4-chlorophenyl)-2-hydroxyethyl)-1,2,4-oxadiazol-5-yl)methyl)-4-(hydroxymethyl)pyridin-2(1H)-one]",> 6.00,,< 4.30,
"Cc1cc(C(N)=O)cn(Cc2nc(CCc3ccc(Cl)cc3)no2)c1=O [Compound 4, 1-({3-[2-(4-chlorophenyl)ethyl]-1,2,4-oxadiazol-5-yl}methyl)-5-methyl-6-oxopyridine-3-carboxamide]",> 6.00,,< 4.30,

# Continued, in another order:
pIC50 ([1]; Table 4),pIC50 ([1]; Table 5),Structure (SMILES),pIC50 ([2]; Table 4),pIC50 ([2]; Table 5)
,> 6.52,"O=c1c(Cl)c(CO)ncn1Cc1nc(C[C@H](O)c2ccc(Cl)cc2)no1 [Compound 54, (S)-5-chloro-3-((3-(2-(4-chlorophenyl)-2-hydroxyethyl)-1,2,4-oxadiazol-5-yl)methyl)-6-(hydroxymethyl)pyrimidin-4(3H)-one]",,< 4.30
,> 7.00,"O=c1c(Br)c(Cl)ncn1Cc1nc(C[C@H](O)c2ccc(Cl)cc2)no1 [Compound 67, (S)-5-bromo-6-chloro-3-((3-(2-(4-chlorophenyl)-2-hydroxyethyl)-1,2,4-oxadiazol-5-yl)methyl)pyrimidin-4(3H)-one]",,> 4.30
,> 7.00,"Cc1c(Cl)ncn(Cc2nc(C[C@H](O)c3ccc(Cl)cc3)no2)c1=O [Compound 58, (S)-6-chloro-3-((3-(2-(4-chlorophenyl)-2-hydroxyethyl)-1,2,4-oxadiazol-5-yl)methyl)-5-methylpyrimidin-4(3H)-one]",,< 4.30
,> 6.52,"Nc1c(Cl)ncn(Cc2nc(C[C@H](O)c3ccc(Cl)cc3)no2)c1=O [Compound 66, (S)-5-amino-6-chloro-3-((3-(2-(4-chlorophenyl)-2-hydroxyethyl)-1,2,4-oxadiazol-5-yl)methyl)pyrimidin-4(3H)-one]",,< 4.30
> 6.52,,"O=c1c(Cl)c(-c2cn[nH]c2)ncn1Cc1nc(C[C@H](O)c2ccc(Cl)cc2)no1 [Compound 35, (S)-5-chloro-3-((3-(2-(4-chlorophenyl)-2-hydroxyethyl)-1,2,4-oxadiazol-5-yl)methyl)-6-(1H-pyrazol-4-yl)pyrimidin-4(3H)-one]",> 4.30,
,> 6.52,"Cc1c(-c2cn[nH]c2)ncn(Cc2nc(C[C@H](O)c3ccc(Cl)cc3)no2)c1=O [Compound 65, (S)-3-((3-(2-(4-chlorophenyl)-2-hydroxyethyl)-1,2,4-oxadiazol-5-yl)methyl)-5-methyl-6-(1H-pyrazol-4-yl)pyrimidin-4(3H)-one]",,> 4.30
,> 6.52,"COc1ncn(Cc2nc(C[C@H](O)c3ccc(Cl)cc3)no2)c(=O)c1Cl [Compound 70, (S)-5-chloro-3-((3-(2-(4-chlorophenyl)-2-hydroxyethyl)-1,2,4-oxadiazol-5-yl)methyl)-6-methoxypyrimidin-4(3H)-one]",,< 4.30
,> 7.00,"N#Cc1ncn(Cc2nc(C[C@H](O)c3ccc(Cl)cc3)no2)c(=O)c1Cl [Compound 63, 5-chloro-1-({3-[(2S)-2-(4-chlorophenyl)-2-hydroxyethyl]-1,2,4-oxadiazol-5-yl}methyl)-6-oxopyrimidine-4-carbonitrile]",,> 4.30
,> 7.00,"Nc1ncc(Cl)c(=O)n1Cc1nc(C[C@H](O)c2ccc(Cl)cc2)no1 [Compound 71, (S)-2-amino-5-chloro-3-((3-(2-(4-chlorophenyl)-2-hydroxyethyl)-1,2,4-oxadiazol-5-yl)methyl)pyrimidin-4(3H)-one]",,< 4.30
> 7.00,,"Cc1ncn(Cc2nc(C[C@H](O)c3ccc(Cl)cc3)no2)c(=O)c1Cl [Compound 36, (S)-5-chloro-3-((3-(2-(4-chlorophenyl)-2-hydroxyethyl)-1,2,4-oxadiazol-5-yl)methyl)-6-methylpyrimidin-4(3H)-one]",< 4.30,
,> 7.00,"O=c1c(Cl)cnc(CO)n1Cc1nc(C[C@H](O)c2ccc(Cl)cc2)no1 [Compound 73, (S)-5-chloro-3-((3-(2-(4-chlorophenyl)-2-hydroxyethyl)-1,2,4-oxadiazol-5-yl)methyl)-2-(hydroxymethyl)pyrimidin-4(3H)-one]",,< 4.30
